# From patent US10765616B2, “Oral formulation of polyglucosamine derivatives in combination with a non-fermentable sugar” (SYNEDGEN, INC., priority 2013, dated 2020)
# Columns and labels:
# [1] = tested on: S. mutans biofilms; experiment: Comparative biofilm reduction study of oral rinses and active ingredients (MBEC pegs); assay type: cell-based, Streptococcus mutans; conditions: 72 h S. mutans biofilms, treated 2 minutes twice (6-hour interval), vs water control
# Description: Biofilms of S. mutans were grown on hydroxyapatite-coated pegs according to MBEC Assay™ methods for 72 hours, and then treated with the oral rinses or a water control. The corresponding active ingredients were also evaluated. The biofilms were exposed for 2-minutes, twice in a 6-hour interval to evaluate biofilm removal. Following treatment, biofilms were rinsed, fixed, and stained with 0.4% Crystal Violet, and remaining biofilm was quantitated via CFU or OD595 (Beenken and Smeltzer, 2003). Biofilms were analyzed in triplicate in at least 3 independent assays. Ratios were averaged from all assays and the percent biofilm reduced and standard error compared to water control is shown.
# [2] = tested on: S. mutans biofilms; experiment: MBEC peg biofilm biomass reduction assay of active ingredients (twice daily, OD595); assay type: cell-based, Streptococcus mutans; conditions: 2 minutes, 8-hour interval, 32 μg/mL PAAG, 1.5% hydrogen peroxide, alcohol, lactoferrin, chlorhexidine
# Description: The S. mutans biofilms were grown according to MBEC™ for High-throughput Screening methods (Innovotech) on a hydroxyapatite-coated peg lid placed in trough containing BHI media supplemented with 1% sucrose rocking for 72 hours. The pegs were treated twice daily with PAAG (30% functionalized, 86 kD) active ingredients (FIG. 9) at 8-hour intervals for 2-minutes. The biofilms were rinsed in PBS, and the pegs were removed and placed into 200 μl 95% ethanol each for 2 minutes to fix the biofilms. The MBEC-HTP biofilms were stained with 150 μl of 3% Crystal Violet dye each for 2 minutes, and rinsed five times with PBS. It was noted that chlorhexidine appears to “fix” the biofilm to the pegs. The bacteria may or may not be viable because OD measured biofilm biomass, not viable CFUs. The stained and rinsed MBEC-HTP biofilms were then placed in 150 μL ethanol for 1-minute to remove the dye/biofilm. Then 100 μL of the ethanol and dyed biofilm suspension was placed into a 96-well plate and the OD595 was measured to quantify the remaining stained biofilm biomass.
# [3] = tested on: A431 epithelial cells
# Description: Human epithelial cell monolayers of A431 (ATCC CRL-1555) were seeded in tissue culture treated 96-well plates at a density of 2×10^4 cells/well in DMEM media supplemented with 10% FBS, 1% Penicillin-Streptomycin, and 1% Amphotericin B. Seeded cells were incubated at 37° C. with 5% CO2 for 48 hours. The media was removed and replaced with serum-free, antimicrobial-free media and rinsed one time for 30 seconds with PAAG Oral Formulation H, other oral products (Biotene, Corsodyl, Peroxyl, or Listerine), 32 μg/mL PAAG (30% functionalized, 86 kDa) and other active ingredients (0.029% lactoferrin, 0.2% chlorhexidine gluconate, 1.5% hydrogen peroxide, or 20% alcohol). Epithelial cell viability was determined by ATPLite Luminescence ATP Detection Assay System (PerkinElmer). Testing was done in duplicate.
# Epithelial cell viability was compared between PAAG and other oral active ingredients and oral rinse products. Human epithelial cell monolayers were rinsed once for 30 seconds with each treatment. Following treatment, the epithelial cells were evaluated with ATP LITE Luminecence assay that measured viability via ATP. The data was normalized to untreated cells to compare percent survival (FIG. 4). […] The cells were rinsed once with PAAG Oral Formulation H, other oral rinse products (Biotene, Corsodyl, Peroxyl, or Listerine), oral products active ingredients (0.0032% PAAG, 0.029% lactoferrin (LF), 0.2% chlorhexidine (CHG), 1.5% hydrogen peroxide, or 20% alcohol). PAAG Oral Formulation H contains sorbitol (17.5%), glycerin (10%), xylitol (2.5%), polysorbate 20 (1.5%), peppermint oil (0.2%), benzoic acid (0.3%), sodium fluoride (0.5%), and PAAG (0.0032%). Epithelial cell viability was determined by ATPLite Luminescence ATP Detection Assay System (Perkin Elmer) and compared to media rinsed cells.
# [4] = tested on: S. mutans; experiment: PAAG and sorbitol combination bactericidal assay (viable plate counts); assay type: cell-based, Streptococcus mutans; conditions: sorbitol 0-25% w/v, 30 minutes
# Description: A range of sorbitol concentrations (0-25% w/v) was mixed with a range of PAAG concentrations (4-32 μg/mL, 86 kDa, 30% functionalized). S. mutans was exposed to each for 30 minutes before being neutralized with D/E neutralization broth, then diluted and plated for measurement of viable plate counts (CFU).
# [5] = active ingredients at the concentration printed in the row or sentence
Compound,"Percent (%) Biomass Reduced [1, 5]",reduction in S. mutans biofilm biomass compared to water control [2],epithelial cell viability [3],also measured
"CCO [Alcohol, alcohol]",39.9 ± 3.9%,significant reduction,,"Percent (%) Biomass Reduced ([1]; active ingredients at the concentration printed in the row or sentence, listed as alcohol): 39.9±3.9%"
"[H]/N=C(\N/C(=N/[H])NCCCCCCNC(=N)NC(=N)Nc1ccc(Cl)cc1)Nc1ccc(Cl)cc1 [Chlorhexidine, chlorhexidine gluconate]",17.1 ± 4.5%,did not significantly reduce,,"Percent (%) Biomass Reduced ([1]; active ingredients at the concentration printed in the row or sentence, listed as Chlorhexidine gluconate): 17.1±4.5%"
OO [hydrogen peroxide],36.9±3.8%,significant reduction,maintain epithelial cell viability,"Percent (%) Biomass Reduced ([1]; active ingredients at the concentration given, listed as H2O2): 36.9 ± 3.8%"
OC[C@@H](O)[C@@H](O)[C@H](O)[C@@H](O)CO [sorbitol],,,,effect of sorbitol alone on bacterial viability [4]: did not affect bacterial viability
"poly (acetyl, arginyl) glucosamine [PAAG]",,,maintain epithelial cell viability,cytotoxicity to epithelial cells compared to other oral rinse products [3]: least cytotoxic
